According to PubChem BioAssay (NCI):
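Five compound concentrations were applied to cells in 96-well plates for 48 hours; endpoints were derived by simple linear interpolation of the resulting dose-response curve. GI50 = concentration required for 50% inhibition of growth. The concentration for full growth arrest is given as TGI.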

What was measured:
Test in all cases: DTP human tumour cell line panel, 48 h
OVCAR-4 ovarian = tested on: OVCAR-4 ovarian
T-47D breast = tested on: T-47D breast
KM12 colon = tested on: KM12 colon
MOLT-4 leukemia = tested on: MOLT-4 leukemia
SF-539 CNS = tested on: SF-539 CNS
OVCAR-3 ovarian = tested on: OVCAR-3 ovarian
UO-31 renal = tested on: UO-31 renal
NCI/ADR-RES ovarian = tested on: NCI/ADR-RES ovarian
COLO 205 colon = tested on: COLO 205 colon
UACC-62 melanoma = tested on: UACC-62 melanoma
K-562 leukemia = tested on: K-562 leukemia
SF-295 CNS = tested on: SF-295 CNS
HL-60(TB) leukemia = tested on: HL-60(TB) leukemia
MDA-MB-231 breast = tested on: MDA-MB-231 breast
RPMI-8226 leukemia = tested on: RPMI-8226 leukemia
HCT-15 colon = tested on: HCT-15 colon
DU-145 prostate = tested on: DU-145 prostate
SN12C renal = tested on: SN12C renal
HOP-92 NSCLC = tested on: HOP-92 NSCLC
SK-MEL-5 melanoma = tested on: SK-MEL-5 melanoma
UACC-257 melanoma = tested on: UACC-257 melanoma
OVCAR-5 ovarian = tested on: OVCAR-5 ovarian
SNB-75 CNS = tested on: SNB-75 CNS
CAKI-1 renal = tested on: CAKI-1 renal
786-0 renal = tested on: 786-0 renal
SF-268 CNS = tested on: SF-268 CNS
NCI-H23 lung = tested on: NCI-H23 lung
U251 CNS = tested on: U251 CNS
M14 melanoma = tested on: M14 melanoma
SNB-19 CNS = tested on: SNB-19 CNS
HS 578T breast = tested on: HS 578T breast
SK-MEL-2 melanoma = tested on: SK-MEL-2 melanoma
SW-620 colon = tested on: SW-620 colon
NCI-H522 lung = tested on: NCI-H522 lung
HCT-116 colon = tested on: HCT-116 colon
PC-3 prostate = tested on: PC-3 prostate
TK-10 renal = tested on: TK-10 renal
ACHN renal = tested on: ACHN renal
NCI-H226 lung = tested on: NCI-H226 lung
SK-OV-3 ovarian = tested on: SK-OV-3 ovarian
MCF7 breast = tested on: MCF7 breast
A549 NSCLC = tested on: A549 NSCLC
RXF 393 renal = tested on: RXF 393 renal
IGROV1 ovarian = tested on: IGROV1 ovarian
HT29 colon = tested on: HT29 colon
SK-MEL-28 melanoma = tested on: SK-MEL-28 melanoma
MDA-MB-435 = tested on: MDA-MB-435
NCI-H460 lung = tested on: NCI-H460 lung
A498 renal = tested on: A498 renal
HOP-62 NSCLC = tested on: HOP-62 NSCLC
MALME-3M melanoma = tested on: MALME-3M melanoma
OVCAR-8 ovarian = tested on: OVCAR-8 ovarian
EKVX NSCLC = tested on: EKVX NSCLC
SR leukemia = tested on: SR leukemia
LOX IMVI melanoma = tested on: LOX IMVI melanoma
HCC-2998 colon = tested on: HCC-2998 colon
CCRF-CEM leukemia = tested on: CCRF-CEM leukemia

`NC(CSSCC(N)=NCC12CC3CC(CC(C3)C1)C2)=NCC12CC3CC(CC(C3)C1)C2` gave a TGI (OVCAR-4 ovarian) of 45.3 µM, a TGI (T-47D breast) greater than 100 µM and a TGI (KM12 colon) of 29 µM. It also gave a TGI (MOLT-4 leukemia) of 16.9 µM, a TGI (SF-539 CNS) of 34.3 µM and a TGI (OVCAR-3 ovarian) of 35.6 µM. The TGI (UO-31 renal) was 46.7 µM, the TGI (NCI/ADR-RES ovarian) was 33.8 µM and the TGI (COLO 205 colon) was 52.5 µM. For the same compound, the TGI (UACC-62 melanoma) was 26.1 µM, the TGI (K-562 leukemia) was 27.2 µM and the TGI (SF-295 CNS) was 31.3 µM. The TGI (HL-60(TB) leukemia) was 26.3 µM, the TGI (MDA-MB-231 breast) was 16.2 µM and the TGI (RPMI-8226 leukemia) was 6.17 µM. The TGI (HCT-15 colon) was 25 µM, the TGI (DU-145 prostate) was 32.5 µM and the TGI (SN12C renal) was 31.1 µM. It also gave a TGI (HOP-92 NSCLC) of 32.7 µM, a TGI (SK-MEL-5 melanoma) of 36.5 µM and a TGI (UACC-257 melanoma) of 30.5 µM. The TGI (OVCAR-5 ovarian) was 34.2 µM, the TGI (SNB-75 CNS) was 45.2 µM and the TGI (CAKI-1 renal) was 36.4 µM. For the same compound, the TGI (786-0 renal) was greater than 100 µM, the TGI (SF-268 CNS) was greater than 100 µM and the TGI (NCI-H23 lung) was 32.3 µM. The TGI (U251 CNS) was 29 µM, the TGI (M14 melanoma) was 50.2 µM and the TGI (SNB-19 CNS) was 41.5 µM. The TGI (HS 578T breast) was 50.7 µM, the TGI (SK-MEL-2 melanoma) was 55.1 µM and the TGI (SW-620 colon) was 41.6 µM. For the same compound, the TGI (NCI-H522 lung) was 38.6 µM, the TGI (HCT-116 colon) was 80.9 µM and the TGI (PC-3 prostate) was 29.9 µM. The TGI (TK-10 renal) was 36.3 µM, the TGI (ACHN renal) was 26.6 µM and the TGI (NCI-H226 lung) was 43.3 µM. It also gave a TGI (SK-OV-3 ovarian) of 36.5 µM, a TGI (MCF7 breast) greater than 100 µM and a TGI (A549 NSCLC) of 31.3 µM. It also gave a TGI (RXF 393 renal) greater than 100 µM, a TGI (IGROV1 ovarian) of 40.9 µM and a TGI (HT29 colon) of 28.4 µM. For the same compound, the TGI (SK-MEL-28 melanoma) was 44.4 µM, the TGI (MDA-MB-435) was 28.1 µM and the TGI (NCI-H460 lung) was greater than 100 µM. It also gave a TGI (A498 renal) of 51 µM, a TGI (HOP-62 NSCLC) greater than 100 µM and a TGI (MALME-3M melanoma) of 33.6 µM. The TGI (OVCAR-8 ovarian) was 51.4 µM.
With `CC(N)(Cc1c[nH]c2cccc(F)c12)C(=O)O` (centres undefined) the GI50 (OVCAR-4 ovarian) was greater than 1000 µM, the TGI (OVCAR-4 ovarian) was greater than 1000 µM and the GI50 (T-47D breast) was 978 µM. The TGI (T-47D breast) was greater than 1000 µM, the GI50 (KM12 colon) was greater than 1000 µM and the TGI (KM12 colon) was greater than 1000 µM. It also gave a GI50 (MOLT-4 leukemia) greater than 1000 µM, a TGI (MOLT-4 leukemia) greater than 1000 µM and a GI50 (SF-539 CNS) greater than 1000 µM. For the same compound, the TGI (SF-539 CNS) was greater than 1000 µM, the GI50 (OVCAR-3 ovarian) was greater than 1000 µM and the TGI (OVCAR-3 ovarian) was greater than 1000 µM. The GI50 (UO-31 renal) was 138 µM, the TGI (UO-31 renal) was greater than 1000 µM and the GI50 (NCI/ADR-RES ovarian) was greater than 1000 µM. For the same compound, the TGI (NCI/ADR-RES ovarian) was greater than 1000 µM, the GI50 (UACC-62 melanoma) was greater than 1000 µM and the TGI (UACC-62 melanoma) was greater than 1000 µM. It also gave a GI50 (K-562 leukemia) greater than 1000 µM, a TGI (K-562 leukemia) greater than 1000 µM and a GI50 (SF-295 CNS) greater than 1000 µM. It also gave a TGI (SF-295 CNS) greater than 1000 µM, a GI50 (HL-60(TB) leukemia) greater than 1000 µM and a TGI (HL-60(TB) leukemia) greater than 1000 µM. For the same compound, the GI50 (MDA-MB-231 breast) was greater than 1000 µM, the TGI (MDA-MB-231 breast) was greater than 1000 µM and the GI50 (RPMI-8226 leukemia) was greater than 1000 µM. It also gave a TGI (RPMI-8226 leukemia) greater than 1000 µM, a GI50 (HCT-15 colon) greater than 1000 µM and a TGI (HCT-15 colon) greater than 1000 µM. For the same compound, the GI50 (DU-145 prostate) was greater than 1000 µM, the TGI (DU-145 prostate) was greater than 1000 µM and the GI50 (SN12C renal) was greater than 1000 µM. For the same compound, the TGI (SN12C renal) was greater than 1000 µM, the TGI (HOP-92 NSCLC) was greater than 1000 µM and the GI50 (SK-MEL-5 melanoma) was greater than 1000 µM. The TGI (SK-MEL-5 melanoma) was greater than 1000 µM, the GI50 (UACC-257 melanoma) was greater than 1000 µM and the TGI (UACC-257 melanoma) was greater than 1000 µM. It also gave a GI50 (OVCAR-5 ovarian) greater than 1000 µM, a TGI (OVCAR-5 ovarian) greater than 1000 µM and a GI50 (EKVX NSCLC) greater than 1000 µM. The TGI (EKVX NSCLC) was greater than 1000 µM, the GI50 (SR leukemia) was greater than 1000 µM and the TGI (SR leukemia) was greater than 1000 µM. It also gave a GI50 (SNB-75 CNS) of 405 µM, a TGI (SNB-75 CNS) greater than 1000 µM and a GI50 (CAKI-1 renal) greater than 1000 µM. For the same compound, the TGI (CAKI-1 renal) was greater than 1000 µM, the GI50 (786-0 renal) was greater than 1000 µM and the TGI (786-0 renal) was greater than 1000 µM. It also gave a GI50 (SF-268 CNS) greater than 1000 µM, a TGI (SF-268 CNS) greater than 1000 µM and a GI50 (NCI-H23 lung) greater than 1000 µM. The TGI (NCI-H23 lung) was greater than 1000 µM, the GI50 (U251 CNS) was greater than 1000 µM and the TGI (U251 CNS) was greater than 1000 µM. The GI50 (M14 melanoma) was greater than 1000 µM, the TGI (M14 melanoma) was greater than 1000 µM and the GI50 (SNB-19 CNS) was greater than 1000 µM. The TGI (SNB-19 CNS) was greater than 1000 µM, the GI50 (HS 578T breast) was 786 µM and the TGI (HS 578T breast) was greater than 1000 µM. The GI50 (SW-620 colon) was greater than 1000 µM, the TGI (SW-620 colon) was greater than 1000 µM and the GI50 (LOX IMVI melanoma) was greater than 1000 µM. It also gave a TGI (LOX IMVI melanoma) greater than 1000 µM, a GI50 (NCI-H522 lung) greater than 1000 µM and a TGI (NCI-H522 lung) greater than 1000 µM. For the same compound, the GI50 (HCT-116 colon) was greater than 1000 µM, the TGI (HCT-116 colon) was greater than 1000 µM and the GI50 (PC-3 prostate) was greater than 1000 µM. The TGI (PC-3 prostate) was greater than 1000 µM, the GI50 (TK-10 renal) was greater than 1000 µM and the TGI (TK-10 renal) was greater than 1000 µM. The GI50 (ACHN renal) was greater than 1000 µM, the TGI (ACHN renal) was greater than 1000 µM and the GI50 (SK-OV-3 ovarian) was 992 µM. It also gave a TGI (SK-OV-3 ovarian) greater than 1000 µM, a GI50 (MCF7 breast) greater than 1000 µM and a TGI (MCF7 breast) greater than 1000 µM. For the same compound, the GI50 (A549 NSCLC) was greater than 1000 µM, the TGI (A549 NSCLC) was greater than 1000 µM and the GI50 (RXF 393 renal) was greater than 1000 µM. It also gave a TGI (RXF 393 renal) greater than 1000 µM, a GI50 (IGROV1 ovarian) of 364 µM and a TGI (IGROV1 ovarian) greater than 1000 µM. For the same compound, the GI50 (HT29 colon) was greater than 1000 µM, the TGI (HT29 colon) was greater than 1000 µM and the GI50 (SK-MEL-28 melanoma) was greater than 1000 µM. For the same compound, the TGI (SK-MEL-28 melanoma) was greater than 1000 µM, the GI50 (HCC-2998 colon) was greater than 1000 µM and the TGI (HCC-2998 colon) was greater than 1000 µM. For the same compound, the GI50 (MDA-MB-435) was greater than 1000 µM, the TGI (MDA-MB-435) was greater than 1000 µM and the GI50 (NCI-H460 lung) was greater than 1000 µM. For the same compound, the TGI (NCI-H460 lung) was greater than 1000 µM, the GI50 (CCRF-CEM leukemia) was greater than 1000 µM and the TGI (CCRF-CEM leukemia) was greater than 1000 µM. It also gave a GI50 (A498 renal) greater than 1000 µM, a TGI (A498 renal) greater than 1000 µM and a GI50 (HOP-62 NSCLC) of 645 µM. It also gave a TGI (HOP-62 NSCLC) greater than 1000 µM, a GI50 (MALME-3M melanoma) greater than 1000 µM and a TGI (MALME-3M melanoma) greater than 1000 µM. The GI50 (OVCAR-8 ovarian) was greater than 1000 µM and the TGI (OVCAR-8 ovarian) was greater than 1000 µM.
